Converted amounts (≈) assume the structure as drawn. The source made the active and inactive calls. No cut-off for these calls is given here.
Legend:
Cal27CisR [1] = experiment: Induction of apoptosis in cisplatin resistant human Cal27CisR cells assessed as decrease in Bcl-2 expression at 0.316 uM in presence of cisplatin at 16.5 uM preincubated with compound for 24 to 72 hrs prior to addition of cisplatin and measured after 24 hrs by Immunoblotting analysis; assay type: functional, cell-based; conditions: time 48-96 hrs
Cal27CisR [2] = experiment: Induction of apoptosis in cisplatin resistant human Cal27CisR cells assessed as decrease in BIM expression at 0.316 uM incubated for 24 to 72 hrs by Immunoblotting analysis; assay type: functional, cell-based; conditions: time 24-72 hrs
[3] = Lipophilicity, logD of the compound in 1-octanol/PBS buffer at pH 7.4 by HPLC/UV analysis; assay type: physicochemical; conditions: 1-octanol/PBS buffer, read-out: logD
Cal27CisR [4] = experiment: Induction of apoptosis in cisplatin resistant human Cal27CisR cells assessed as decrease in Bcl-2 expression at 0.316 uM incubated for 24 to 72 hrs by Immunoblotting analysis; assay type: functional, cell-based; conditions: time 24-72 hrs
CAL-27 [5] = experiment: Induction of apoptosis in human CAL-27 cells assessed as increase in apoptotic nuclei at sub-G1 phase at 0.316 uM in presence of cisplatin at 3 uM preincubated with compound for 48 hrs prior to addition of cisplatin and measured after 24 hrs by flow cytometric analysis; assay type: functional, cell-based; conditions: time 72.0 hrs
Cal27CisR [6] = experiment: Induction of apoptosis in cisplatin resistant human Cal27CisR cells assessed as decrease in BAX expression at 0.316 uM in presence of cisplatin at 16.5 uM preincubated with compound for 24 to 72 hrs prior to addition of cisplatin and measured after 24 hrs by Immunoblotting analysis; assay type: functional, cell-based; conditions: time 48-96 hrs
Cal27CisR [7] = experiment: Induction of apoptosis in cisplatin resistant human Cal27CisR cells assessed as decrease in p21 expression at 0.316 uM in presence of cisplatin at 16.5 uM preincubated with compound for 24 to 72 hrs prior to addition of cisplatin and measured after 24 hrs by Immunoblotting analysis; assay type: functional, cell-based; conditions: time 48-96 hrs
cells [8] = conditions: Homo sapiens, A2780cisR
CAL-27 [9] = experiment: Downregulation of survivin expression in human CAL-27 cells at 0.316 uM incubated for 48 hrs by Immunoblotting analysis; assay type: functional, cell-based
Cal27CisR [10] = experiment: Induction of apoptosis in cisplatin resistant human Cal27CisR cells assessed as decrease in BAX expression at 0.316 uM incubated for 24 to 72 hrs by Immunoblotting analysis; assay type: functional, cell-based; conditions: time 24-72 hrs
Cal27CisR [11] = experiment: Induction of apoptosis in cisplatin resistant human Cal27CisR cells assessed as decrease in survivin expression at 0.316 uM incubated for 24 to 72 hrs by Immunoblotting analysis; assay type: functional, cell-based; conditions: time 24-72 hrs
Cal27CisR [12] = experiment: Downregulation of BAX expression in cisplatin resistant human Cal27CisR cells at 0.316 uM incubated for 48 hrs by Immunoblotting analysis; assay type: functional, cell-based
A2780cisR [13] = experiment: Effect on survivin expression in human cisplatin resistant human A2780 cisR cells at 2 uM in presence of cisplatin at 16 uM preincubated with compound for 48 hrs prior to addition of cisplatin and measured after 24 hrs by Immunoblotting analysis; assay type: functional, cell-based; conditions: time 72.0 hrs
cells [14] = conditions: Homo sapiens, Cal27CisR
Cal27CisR [15] = experiment: Induction of apoptosis in cisplatin resistant human Cal27CisR cells assessed as decrease in survivin expression at 0.316 uM in presence of cisplatin at 16.5 uM preincubated with compound for 24 to 72 hrs prior to addition of cisplatin and measured after 24 hrs by Immunoblotting analysis; assay type: functional, cell-based; conditions: time 48-96 hrs
Cal27CisR [16] = experiment: Induction of apoptosis in cisplatin resistant human Cal27CisR cells assessed as increase in Bcl-2 protein level at 0.316 uM incubated for 48 hrs by Immunoblotting analysis; assay type: functional, cell-based
Cal27CisR [17] = experiment: Induction of apoptosis in cisplatin resistant human Cal27CisR cells assessed as decrease in p21 expression at 0.316 uM incubated for 24 to 72 hrs by Immunoblotting analysis; assay type: functional, cell-based; conditions: time 24-72 hrs
[18] = Solubility of the compound in PBS buffer at pH 7.4 incubated for 72 hrs by HPLC/UV analysis; assay type: physicochemical
Cal27CisR [19] = experiment: Induction of apoptosis in cisplatin resistant human Cal27CisR cells assessed as increase in apoptotic nuclei at sub-G1 phase at 0.316 uM in presence of cisplatin at 3 uM preincubated with compound for 48 hrs prior to addition of cisplatin and measured after 24 hrs by flow cytometric analysis; assay type: functional, cell-based; conditions: time 72.0 hrs
Cal27CisR [20] = experiment: Induction of apoptosis in cisplatin resistant human Cal27CisR cells assessed as decrease in BIM expression at 0.316 uM in presence of cisplatin at 16.5 uM preincubated with compound for 24 to 72 hrs prior to addition of cisplatin and measured after 24 hrs by Immunoblotting analysis; assay type: functional, cell-based; conditions: time 48-96 hrs
A2780cisR [21] = experiment: Effect of Bcl-2 protein level in cisplatin resistant human A2780 cisR cells at 2 uM incubated for 48 hrs by Immunoblotting analysis; assay type: functional, cell-based

IC50 (cells [8])	IC50 (cells [14])	Compound	Activity (CAL-27 [5])	Activity (CAL-27 [9])	Activity (Cal27CisR [12])	Activity (A2780cisR [13])	Activity (Cal27CisR [16])	Activity (Cal27CisR [19])	other results
295 nM	2320 nM	CCCNNC(=O)c1ccc(CN(CC(=O)NCc2ccccc2)C(=O)c2ccc(N(C)C)cc2)cc1	Active	Active	Active	inactive	Not active; Slight Increase Observed	Active	Activity (Cal27CisR [1]): Active; Activity (Cal27CisR [2]): inactive; logD [3]: 3.76; Activity (Cal27CisR [4]): inactive; Activity (Cal27CisR [6]): Active; Activity (Cal27CisR [7]): Active; Activity (Cal27CisR [10]): inactive; Activity (Cal27CisR [11]): inactive; Activity (Cal27CisR [15]): Active; Activity (Cal27CisR [17]): inactive; solubility at 72 h [18]: 16.8 µg/mL (≈ 33.5 µM); Activity (Cal27CisR [20]): Active
268 nM	2220 nM	CCCCNNC(=O)c1ccc(CN(CC(=O)NCc2ccccc2)C(=O)c2ccc(N(C)C)cc2)cc1	Active	Active	Active	inactive	Not active; Slight Increase Observed	Active	Activity (A2780cisR [21]): inactive

Reference: ChEMBL document CHEMBL6120974, “Hydrazide-Based Class I Selective HDAC Inhibitors Completely Reverse Chemoresistance Synergistically in Platinum-Resistant Solid Cancer Cells” (J Med Chem, 2024)
